Data from US12383539B2 (Cavion, Inc., priority 2018, dated 2025).

Columns and labels:
[1] = system: patients with essential tremor; experiment: T-CALM: TETRAS activities of daily living subscale (TETRAS-ADL); assay type: in vivo, human; conditions: for TETRAS-ADL score (change from baseline), Mean (SD) / TETRAS-ADL score (change from baseline), Median / TETRAS-ADL score (change from baseline), Median (minimum, maximum): post-hoc
Source text: The sum of the individual scores provides the overall score, ranging from 0 to 48. The complete TETRAS ADL Subscale is as follows.
Rate tremor's impact on activities of daily living (0-4 scoring).
• 0=Normal. • 1=Slight voice tremulousness, only when “nervous”. • 2=Mild voice tremor. All words easily understood. • 3=Moderate voice tremor. Some words difficult to understand. • 4=Severe voice tremor. Most words difficult to understand. 2. Feeding with a Spoon • 0=Normal. • 1=Slightly abnormal. […] Spills a little. • 3=Moderately abnormal. Spills a lot or changes strategy to complete task such as using two hands or leaning over. • 4=Severely abnormal. Cannot feed with a spoon. 3. Drinking from a Glass • 0=Normal. • 1=Slightly abnormal. […] Spills a little. • 3=Moderately abnormal. Spills a lot or changes strategy to complete task such as using two, hands or leaning over. • 4=Severely abnormal. Cannot drink from a glass or uses straw or sippy cup. 4. Hygiene • 0=Normal. • 1=Slightly abnormal. […] Some difficulty but can complete task. • 3=Moderately abnormal. Unable to do most fine tasks such as putting on lipstick or shaving unless changes strategy such as using two hands or using the less affected hand. 4=Severely abnormal. Cannot complete hygiene tasks independently. 5. Dressing • 0=Normal. • 1=Slightly abnormal. […] Able to do everything but has difficulty due to tremor. • 3=Moderately abnormal. Unable to do most dressing unless changes strategy such as using Velcro, buttoning shirt before putting it on or avoiding shoes with laces. • 4=Severely abnormal. Cannot dress independently. 6. Pouring • 0=Normal. • 1=Slightly abnormal. […] Must be very careful to avoid spilling but may spill occasionally. • 3=Moderately abnormal. Must use two hands or uses other strategies to avoid spilling. • 4=Severely abnormal. Cannot pour. 7. Carrying Food Trays, Plates or Similar Items • 0=Normal. • 1=Slightly abnormal. […] Must be very careful to avoid spilling items on food tray. • 3=Moderately abnormal. Uses strategies such as holding tightly against body to carry. • 4=Severely abnormal. Cannot carry food trays or similar items. 8. Using Keys • 0=Normal. • 1=Slightly abnormal. Tremor is present but can insert key with one hand without difficulty. • 2=Mildly abnormal. Commonly misses target but still routinely puts key in lock with one hand. • 3=Moderately abnormal. Needs to use two hands or other strategies to put key in lock. • 4=Severely abnormal. Cannot put key in lock. 9. Writing • 0=Normal. • 1=Slightly abnormal. […] Difficulty writing due to tremor. • 3=Moderately abnormal. Cannot write without using strategies such as holding the writing hand with the other hand, holding pen differently or using large pen. • 4=Severely abnormal. Cannot write. 10. Working. If Patient is Retired, Ask as if they were Still Working. If the Patient is a Housewife, Ask the Question as it Relates to Housework: • 0=Normal. • 1=Slightly abnormal. […] Tremor interferes with work; able to do everything, but with errors. • 3=Moderately abnormal. Unable to continue working without using strategies such as changing jobs or using special equipment. • 4=Severely abnormal. Cannot perform any job or household work. 11. Overall Disability with the Most Affect Task (Name Task, e.g. Using Computer Mouse, Writing, Etc.) • Task ______ • 0=Normal. • 1=Slightly abnormal. […] Tremor interferes with task but still able to perform task. • 3=Moderately abnormal. Can do task but must use strategies. • 4=Severely abnormal. Cannot do the task. 12.
Analyses of the TETRAS-ADL was conducted using the same type of ANCOVA model as described for the TETRAS-PS, using two-sided tests at the alpha=0.05 level of significance (FIG. 2 and Table 2).

[2] = system: patients with essential tremor; experiment: PK/PD: Cmin exposure of CX-8998 vs change in TETRAS-PS (Hill equation); assay type: in vivo, human; conditions: steady state
Source text: Pharmacodynamic variables (Response) evaluated included change from baseline in TETRAS performance subscale, TETRAS activities of daily living, TETRAS total score.

[3] = system: patients with essential tremor; experiment: T-CALM: TETRAS performance subscale (TETRAS-PS); conditions: for TETRAS-PS total score, change from baseline to Day 28, LS mean difference from placebo (95% CI) / TETRAS-PS total score, change from baseline to Day 28, LS mean (SE): ANCOVA; for TETRAS-PS total score, change from baseline to Day 28, LS mean (SE): multiple imputation
[4] = patients Minimally Improved by CGI-I, Day 15
[5] = patients Minimally Improved by CGI-I, Day 28
[6] = patients Minimally Improved by PGIC, Day 15
[7] = patients Minimally Improved by PGIC, Day 28

CC(C)c1ccc(CC(=O)N[C@H](C)c2ccc(OCC(F)(F)F)cn2)cc1 [CX-8998]
responders: improvement of at least 5 points by TETRAS-ADL score, % ([1]; Day 15): (46.2%)
responders: improvement of at least 5 points by TETRAS-ADL score, number ([1]; Day 15, N 39): 18
TETRAS-ADL change from baseline 0 change: subjects, number (%) ([1]; Day 15, N = 39): 2 (5.1%)
TETRAS-ADL change from baseline >0 to 1 point improvement: subjects, number (%) ([1]; Day 15, N = 39): 5 (12.8%)
TETRAS-ADL change from baseline >0 to 1 point worsening: subjects, number (%) ([1]; Day 15, N = 39): 1 (2.6%)
TETRAS-ADL change from baseline >1 to 2.5 point improvement: subjects, number (%) ([1]; Day 15, N = 39): 2 (5.1%)
TETRAS-ADL change from baseline >1 to 2.5 point worsening: subjects, number (%) ([1]; Day 15, N = 39): 3 (7.7%)
TETRAS-ADL change from baseline >2.5 to 5 point improvement: subjects, number (%) ([1]; Day 15, N = 39): 7 (17.9%)
TETRAS-ADL change from baseline >2.5 to 5 point worsening: subjects, number (%) ([1]; Day 15, N = 39): 3 (7.7%)
TETRAS-ADL change from baseline >5 to 10 point improvement: subjects, number (%) ([1]; Day 15, N = 39): 11 (28.2%)
TETRAS-ADL change from baseline >5 to 10 point worsening: subjects, number (%) ([1]; Day 15, N = 39): 0
TETRAS-ADL change from baseline >10 point improvement: subjects, number (%) ([1]; Day 15, N = 39): 5 (12.8%)
TETRAS-ADL change from baseline >10 point worsening: subjects, number (%) ([1]; Day 15, N = 39): 0
responders: improvement of at least 5 points by TETRAS-ADL score, % ([1]; Day 28): (29.7%)
responders: improvement of at least 5 points by TETRAS-ADL score, number ([1]; Day 28, N 37): 11
TETRAS-ADL change from baseline 0 change: subjects, number (%) ([1]; Day 28, N = 37): 5 (13.5%)
TETRAS-ADL change from baseline >0 to 1 point improvement: subjects, number (%) ([1]; Day 28, N = 37): 2 (5.4%)
TETRAS-ADL change from baseline >0 to 1 point worsening: subjects, number (%) ([1]; Day 28, N = 37): 3 (8.1%)
TETRAS-ADL change from baseline >1 to 2.5 point improvement: subjects, number (%) ([1]; Day 28, N = 37): 3 (8.1%)
TETRAS-ADL change from baseline >1 to 2.5 point worsening: subjects, number (%) ([1]; Day 28, N = 37): 3 (8.1%)
TETRAS-ADL change from baseline >2.5 to 5 point improvement: subjects, number (%) ([1]; Day 28, N = 37): 7 (18.9%)
TETRAS-ADL change from baseline >2.5 to 5 point worsening: subjects, number (%) ([1]; Day 28, N = 37): 3 (8.1%)
TETRAS-ADL change from baseline >5 to 10 point improvement: subjects, number (%) ([1]; Day 28, N = 37): 6 (16.2)
TETRAS-ADL change from baseline >5 to 10 point worsening: subjects, number (%) ([1]; Day 28, N = 37): 0
TETRAS-ADL change from baseline >10 point improvement: subjects, number (%) ([1]; Day 28, N = 37): 5 (13.5%)
TETRAS-ADL change from baseline >10 point worsening: subjects, number (%) ([1]; Day 28, N = 37): 0
TETRAS-ADL score (change from baseline), Mean (SD) [1, 4]: −3.7 (4.21)
TETRAS-ADL score (change from baseline), Median [1, 4]: −2.0
TETRAS-ADL score (change from baseline), Mean (SD) [1, 5]: −4.4 (8.10)
TETRAS-ADL score (change from baseline), Median (minimum, maximum) [1, 5]: −1.0 (−24, 3)
TETRAS-ADL score (change from baseline), Mean (SD) [1, 6]: −3.3 (4.27)
TETRAS-ADL score (change from baseline), Median [1, 6]: −4.0
TETRAS-ADL score (change from baseline), Mean (SD) [1, 7]: −1.6 (3.84)
TETRAS-ADL score (change from baseline), Median (minimum, maximum) [1, 7]: −1.0 (−7, 3)
Emax, change from baseline in TETRAS-PS (Hill equation) [2]: approximately −4.1
responders: improvement of at least 5 points by TETRAS-PS score, % ([3]; Day 15): (30.8%)
TETRAS-PS change from baseline 0 change: subjects, number (%) ([3]; Day 15, N = 39): 2 (5.1%)
TETRAS-PS change from baseline >0 to 1 point improvement: subjects, number (%) ([3]; Day 15, N = 39): 3 (7.7%)
TETRAS-PS change from baseline >0 to 1 point worsening: subjects, number (%) ([3]; Day 15, N = 39): 2 (5.1%)
TETRAS-PS change from baseline >1 to 2.5 point improvement: subjects, number (%) ([3]; Day 15, N = 39): 4 (10.3%)
TETRAS-PS change from baseline >1 to 2.5 point worsening: subjects, number (%) ([3]; Day 15, N = 39): 5 (12.8%)
TETRAS-PS change from baseline >2.5 to 5 point improvement: subjects, number (%) ([3]; Day 15, N = 39): 10 (25.6%)
TETRAS-PS change from baseline >2.5 to 5 point worsening: subjects, number (%) ([3]; Day 15, N = 39): 2 (5.1%)
TETRAS-PS change from baseline >5 to 10 point improvement: subjects, number (%) ([3]; Day 15, N = 39): 8 (20.5%)
TETRAS-PS change from baseline >5 to 10 point worsening: subjects, number (%) ([3]; Day 15, N = 39): 0
TETRAS-PS change from baseline >10 point improvement: subjects, number (%) ([3]; Day 15, N = 39): 3 (7.7%)
TETRAS-PS change from baseline >10 point worsening: subjects, number (%) ([3]; Day 15, N = 39): 0
responders: improvement of at least 5 points by TETRAS-PS score, % ([3]; Day 28): (43.2%)
responders: improvement of at least 5 points by TETRAS-PS score, number ([3]; Day 28, N 37): 16
TETRAS-PS change from baseline 0 change: subjects, number (%) ([3]; Day 28, N = 37): 1 (2.6%)
TETRAS-PS change from baseline >0 to 1 point improvement: subjects, number (%) ([3]; Day 28, N = 37): 6 (15.4%)
TETRAS-PS change from baseline >0 to 1 point worsening: subjects, number (%) ([3]; Day 28, N = 37): 2 (5.1%)
TETRAS-PS change from baseline >1 to 2.5 point improvement: subjects, number (%) ([3]; Day 28, N = 37): 5 (12.8%)
TETRAS-PS change from baseline >1 to 2.5 point worsening: subjects, number (%) ([3]; Day 28, N = 37): 1 (2.6%)
TETRAS-PS change from baseline >2.5 to 5 point improvement: subjects, number (%) ([3]; Day 28, N = 37): 11 (28.2%)
TETRAS-PS change from baseline >2.5 to 5 point worsening: subjects, number (%) ([3]; Day 28, N = 37): 1 (2.6%)
TETRAS-PS change from baseline >5 to 10 point improvement: subjects, number (%) ([3]; Day 28, N = 37): 8 (20.5%)
TETRAS-PS change from baseline >5 to 10 point worsening: subjects, number (%) ([3]; Day 28, N = 37): 0
TETRAS-PS change from baseline >10 point improvement: subjects, number (%) ([3]; Day 28, N = 37): 4 (10.3%)
TETRAS-PS change from baseline >10 point worsening: subjects, number (%) ([3]; Day 28, N = 37): 0
TETRAS-PS scored by investigators (in person), change from baseline, LS mean (±SE) ([3]; Day 28, analysis of Example 25): −4.8±0.80
TETRAS-PS scored by independent video raters, change from baseline, LS mean (±SE) ([3]; Day 28, primary endpoint): −1.8±0.81
TETRAS-PS total score, Mean (SD) ([3]; Day 28, Investigator Rated): 23.6 (5.50)
TETRAS-PS total score, change from baseline to Day 28, Mean (SD) ([3]; Independent Video Raters): −1.6 (4.36)
TETRAS-PS total score, change from baseline to Day 28, Median ([3]; Independent Video Raters): −1.5
TETRAS-PS total score, change from baseline to Day 28, LS mean difference from placebo (95% CI) ([3]; Independent Video Raters): 0.5 (−1.5, 2.5)
TETRAS-PS total score, change from baseline to Day 28, LS mean (SE) ([3]; Independent Video Raters): −1.8 (0.81)
TETRAS-PS total score, change from baseline to Day 28, LS mean difference from placebo (95% CI) ([3]; Investigator Rated): −2.0 (−4.0, 0.0)
TETRAS-PS total score, change from baseline to Day 28, LS mean (SE) ([3]; Investigator Rated): −4.8 (0.80)
TETRAS-PS total score, change from baseline to Day 28, Mean (SD) ([3]; subgroup No Concurrent Tremor Medication at Day 1, Independent Video Raters): −2.5 (5.33)
